Values quoted from earlier work in patent US12357667B2, “Nutraceutical formulations to prevent, treat, and inhibit excess cytokines, SARS-CoV-2 spike proteins, and mRNA vaccine spike proteins” (priority 2021, dated 2025).

Key:
[1] = system: variant spikes from the SARS-CoV-2 alpha and delta strains
[2] = system: SARS-CoV-2 alpha variant B.1.1.7 and the beta variant B.1.351; conditions: alpha variant B.1.1.7 and beta variant B.1.351

| Structure (SMILES) | activity of variant spikes [1] | effectiveness against variants [2] |
| --- | --- | --- |
| CC(=O)N[C@@H](CS)C(=O)O [N-acetylcysteine, reference compound] | suppressed | – |
| C=C(C)[C@@H]1CCC(C)=C[C@H]1c1c(O)cc(CCCCC)c(C(=O)O)c1O [cannabidiolic acid] | – | equally effective |
| CCCCCc1cc(O)c(C/C=C(\C)CCC=C(C)C)c(O)c1C(=O)O [cannabigerolic acid] | – | equally effective |
| N[C@@H](CCC(=O)N[C@@H](CS)C(=O)NCC(=O)O)C(=O)O [glutathione, γ-glutamyl cysteinyl glycine] | suppressed | – |
